Experimental data taken from the NIST ThermoML archive (doi:10.1016/j.tca.2010.11.025).
Numbers after ± are expanded uncertainties.

What was measured:
[1] = 298.15 K; 101.33 kPa; Liquid; Pycnometric method
[2] = refractive index (Na D-line) (dimensionless); conditions: 298.15 K; 101.33 kPa; Liquid; Standard Abbe refractometry

- mass density [1]: 1060.06 ± 0.96 kg/m3
- refractive index [2]: 1.4878 ± 0.0007
SMILES: CN1CCCN(C)C1=O [1,3-dimethyl-3,4,5,6-tetrahydro-2(1H)-pyrimidinone]
